Data set [1] deals with exon and intron 23 of the dystrophin gene. The data set is described as follows: Example 3: intravenous glucose-formulated AOs, RT-PCR of splice correction. Type of data set: in vivo, mdx mice. The settings on record: single intravenous dose of 25 mg/kg, various muscle groups. The source says:
(§1) Given the dramatic enhancement in AO uptake and exon skipping activity and dystrophin restoration observed following intramuscular delivery of glucose-formulated AO we wished to study whether or not such enhancement could also facilitate improved systemic AO delivery and splice correcting activity. Initially we chose to study whether or not systemic PMO AO delivery was enhanced following glucose formulation. We compared PMO formulated in saline with PMO formulated in either 5% glucose or formulated in glucose at a final concentration of 4.5% and delivered these via a single intravenous dose of 25 mg/kg in mdx mice.
We further studied the intravenous enhancing effects by investigating the effects on a peptide conjugated PMO compound using a well characterised arginine-rich peptide (RXR)4.
Total RNA was extracted from skeletal muscle and heart tissue with Trizol (Invitrogen, UK) and 200 ng of RNA template was used for 20 μl RT-PCR with OneStep RT-PCR kit (Qiagen, UK). The primer sequences for the initial RT-PCR were Exon20Fo 5′-[…]-3′ and Ex26Ro 5′-[…]-3′ for amplification of messenger RNA from exons 20 to 26. The cycle conditions were 95° C. for 30 seconds, 55° C. for 1 minute and 72° C. for 2 minutes for 25 cycles. RT-PCR product (1 μl) was then used as the template for secondary PCR performed in 25 μl with 0.5 U Taq DNA polymerase (Invitrogen, UK). […]

The test system is the same in data set [2]. The data set is described as follows: Example 3: intramuscular glucose-formulated AOs, RT-PCR of exon skipping. Type of data set: in vivo, mdx mice. As for the experimental part:
Total RNA was extracted from skeletal muscle and heart tissue with Trizol (Invitrogen, UK) and 200 ng of RNA template was used for 20 μl RT-PCR with OneStep RT-PCR kit (Qiagen, UK). The primer sequences for the initial RT-PCR were Exon20Fo 5′-[…]-3′ and Ex26Ro 5′-[…]-3′ for amplification of messenger RNA from exons 20 to 26. The cycle conditions were 95° C. for 30 seconds, 55° C. for 1 minute and 72° C. for 2 minutes for 25 cycles. RT-PCR product (1 μl) was then used as the template for secondary PCR performed in 25 μl with 0.5 U Taq DNA polymerase (Invitrogen, UK). The primer sequences for the second round were Ex20Fi 5′-[…]-3′ and Ex24Ri 5′-[…]-3. The cycle conditions were 95° C. for 1 minute, 57° C. for 1 minute, and 72° C. for 2 min for 25 cycles. The products were examined by electrophoresis on a 2% agarose gel.
For intramuscular studies the TA muscle of each experimental mdx mouse was injected with a 40 μl dose of PNA and PNA-peptide conjugates with saline at a final concentration of 125 μg/ml, and the contralateral muscle was injected with saline. For systemic intravenous injections, X μg PNA or PNA-peptide conjugates in 80 μl saline buffer were injected into tail vein of mdx mice at the final dose of 25 mg/kg and 6 mg/kg, respectively. […]

The test system is the same in data set [3]. Description: Example 3: intramuscular injection of glucose-formulated AOs, dystrophin-positive myofibres by immunohistochemistry. Type of data set: in vivo. The settings on record: intramuscular into TA, 8 week old mdx mice, two weeks. As for the experimental part: Here we study a novel delivery glucose formulation by evaluating it via local intramuscular injection into the mdx mouse tibialis anterior (TA) muscle. Initial experiments were performed in 6-8 week old mdx mice (referred to as 8 weeks) by treatment with a single dose of 5 ug of 2′OMePS AO formulated in 5% glucose. In a parallel control study, age-matched control mdx mice were treated with the same AO dose formulated in standard saline buffer.
For intramuscular studies the TA muscle of each experimental mdx mouse was injected with a 40 μl dose of PNA and PNA-peptide conjugates with saline at a final concentration of 125 μg/ml, and the contralateral muscle was injected with saline. […]
(§2) Sections of 8 μm were cut from at least two-thirds of the muscle length of TA, quadriceps, gastrocnemius, biceps, abdominal wall and diaphragm muscles and cardiac muscle at 100 μm intervals. […] The maximum number of dystrophin-positive fibres in one section was counted using the Zeiss AxioVision fluorescence microscope. […] Polyclonal antibodies were detected by goat-anti-rabbit IgGs Alexa Fluro 594 (Molecular Probe, UK). […] Polyclonal antibodies were detected by goat-anti-rabbit IgGs Alexa 594 and the monoclonal antibodies by goat-anti-mouse IgGs Alexa 594 (Molecular Probe, UK). […]

Data set [4] has the same test system. Description: Example 3: intramuscular glucose-formulated AOs, Western blot of dystrophin. The class given is in vivo, mdx mice. As for the experimental part:
For intramuscular studies the TA muscle of each experimental mdx mouse was injected with a 40 μl dose of PNA and PNA-peptide conjugates with saline at a final concentration of 125 μg/ml, and the contralateral muscle was injected with saline. For systemic intravenous injections, X μg PNA or PNA-peptide conjugates in 80 μl saline buffer were injected into tail vein of mdx mice at the final dose of 25 mg/kg and 6 mg/kg, respectively. The animals were killed at various time points after injection by CO2 inhalation and tissues were removed and snap-frozen in liquid nitrogen-cooled isopentane and stored at −80° C.
The collected sections were placed in a 1.5 ml polypropylene eppendorf tube (Anachem, UK) on dry ice. […] The supernatant was collected and the protein concentration was quantified by Bradford assay (Sigma, UK). […] The bound primary antibody was detected by horseradish peroxidise-conjugated rabbit anti-mouse IgGs and the ECL Western Blotting Analysis system (Amersham Pharmacia Biosciences, UK). The intensity of the bands obtained from treated mdx muscles was measured by Image J software; the quantification is based on band intensity and area, and is compared with that from normal muscles of C57BL6 mice.
Background: In western blotting, separated proteins are transferred to a membrane and probed.

Data set [5] has the same test system. The data set is described as follows: Example 3: intravenous glucose-formulated AOs, dystrophin immunohistochemistry. The class given is in vivo, mdx mice. The following applies: single intravenous dose of 25 mg/kg.
Description: as §1
We further studied the intravenous enhancing effects by investigating the effects on a peptide conjugated PMO compound using a well characterised arginine-rich peptide (RXR)4. […]
as §2

“5′-GGCCAAACCTCGGCTTACCTGAAAT-3′ (morpholino backbone, further chemistry not given here) [PMO, neutrally charged PMO AO, M23D, 25 mer]”: in data set [1], the “dystrophin splice correction at the RNA level, glucose versus saline formulation” value was “enhanced dystrophin splice correction”. Moreover, the “exon skipping activity at the RNA level, glucose versus saline formulation” value in data set [2] is given as “enhanced exon skipping activity”. For the same substance, the “dystrophin-positive myofibres, 5% glucose formulation compared with saline formulation” value in data set [3] is listed as “no significant difference”. The “dystrophin protein expression on Western blot, glucose versus saline formulation” value in data set [4] was “increased dystrophin protein expression”. In addition, the “corrected dystrophin-positive fibres, glucose (5% or 4.5%) versus saline formulation” value in data set [5] is listed as “significant enhancements”.

For the origin of these results see US20110130346A1, “PEPTIDE CONJUGATES FOR DELVERY OF BIOLOGICALLY ACTIVE COMPOUNDS” (ISIS INNOVATION LIMITED, priority 2008, published 2011).
